This is an account of results in patent US7772183B2 (Bristol-Myers Squibb Company, priority 2005, dated 2010).

The subject of series [1] is HCV replicon in HUH-7 cells. Nature of the series: HCV replicon FRET assay. The series is classed as cell-based, Hepatitis C virus (strain 1b). Particulars: Hepatitis C virus, Huh-7; HCV replicon, for compounds tested; read-out: EC50 Range. An excerpt:
An HCV replicon whole cell system was established as described by Lohmann V, Komer F, Koch J, Herian U, Theilmann L, Bartenschlager R., Science 285(5424):110-3 (1999). This system enabled us to evaluate the effects of our HCV Protease compounds on HCV RNA replication. Briefly, using the HCV strain 1b sequence described in the Lohmann paper (Assession number: AJ238799), an HCV cDNA was synthesized by Operon Technologies, Inc. (Alameda, Calif.), and the full-length replicon was then assembled in plasmid pGem9zf(+) (Promega, Madison, Wis.) using standard molecular biology techniques. The replicon consists of (i) the HCV 5′ UTR fused to the first 12 amino acids of the capsid protein, (ii) the neomycin phosphotransferase gene (neo), (iii) the IRES from encephalomyocarditis virus (EMCV), and (iv) HCV NS3 to NS5B genes and the HCV 3′ UTR. Plasmid DNAs were linearized with Scal and RNA transcripts were synthesized in vitro using the T7 MegaScript transcription kit (Ambion, Austin, Tex.) according to manufacturer's directions. In vitro transcripts of the cDNA were transfected into the human hepatoma cell line, HUH-7. […] Resulting cell lines were characterized for positive and negative strand RNA production and protein production over time.
The HCV replicon FRET assay was developed to monitor the inhibitory effects of compounds described in the disclosure on HCV viral replication. HUH-7 cells, constitutively expressing the HCV replicon, were grown in Dulbecco's Modified Eagle Media (DMEM) (Gibco-BRL) containing 10% Fetal calf serum (FCS) (Sigma) and 1 mg/ml G418 (Gibco-BRL). Cells were seeded the night before (1.5×10^4 cells/well) in 96-well tissue-culture sterile plates. Compound and no compound controls were prepared in DMEM containing 4% FCS, 1:100 Penicillin/Streptomysin (Gibco-BRL), 1:100 L-glutamine and 5% DMSO in the dilution plate (0.5% DMSO final concentration in the assay). Compound/DMSO mixes were added to the cells and incubated for 4 days at 37° C. After 4 days, cells were first assessed for cytotoxicity using alamar Blue (Trek Diagnotstic Systems) for a CC50 reading. The toxicity of compound (CC50) was determined by adding 1/10th volume of alamar Blue to the media incubating the cells. After 4 hours, the fluorescence signal from each well was read, with an excitation wavelength at 530 nm and an emission wavelength of 580 nm, using the Cytofluor Series 4000 (Perspective Biosystems). Plates were then rinsed thoroughly with Phosphate-Buffered Saline (PBS) (3 times 150 μl). The cells were lysed with 25 μl of a lysis assay reagent containing an HCV protease substrate (5× cell Luciferase cell culture lysis reagent (Promega #E153A) diluted to 1× with distilled water, NaCl added to 150 mM final, the FRET peptide substrate (as described for the enzyme assay above) diluted to 10 μM final from a 2 mM stock in 100% DMSO. […]. The plate was then placed into the Cytofluor 4000 instrument which had been set to 340 nm excitation/490 nm emission, automatic mode for 21 cycles and the plate read in a kinetic mode. EC50 determinations were carried out as described for the IC50 determinations.
On the technique in general: A replicon is a self-replicating genome or part of one, used to study replication in cells.

In series [2] the target is T1, HCV NS3/4A protease complex, BMS strain (UniProt P27958, species not given/STRAIN_BMS).
T1 construct: said of H77 and J4L6S; fused on or other part: A three-lysine solubilising tail at the C-terminus of NS4A and a His tag (pET21b, Ni-NTA purification)
T1 sequence (P27958 1027-1657, change not shown, one chain of several): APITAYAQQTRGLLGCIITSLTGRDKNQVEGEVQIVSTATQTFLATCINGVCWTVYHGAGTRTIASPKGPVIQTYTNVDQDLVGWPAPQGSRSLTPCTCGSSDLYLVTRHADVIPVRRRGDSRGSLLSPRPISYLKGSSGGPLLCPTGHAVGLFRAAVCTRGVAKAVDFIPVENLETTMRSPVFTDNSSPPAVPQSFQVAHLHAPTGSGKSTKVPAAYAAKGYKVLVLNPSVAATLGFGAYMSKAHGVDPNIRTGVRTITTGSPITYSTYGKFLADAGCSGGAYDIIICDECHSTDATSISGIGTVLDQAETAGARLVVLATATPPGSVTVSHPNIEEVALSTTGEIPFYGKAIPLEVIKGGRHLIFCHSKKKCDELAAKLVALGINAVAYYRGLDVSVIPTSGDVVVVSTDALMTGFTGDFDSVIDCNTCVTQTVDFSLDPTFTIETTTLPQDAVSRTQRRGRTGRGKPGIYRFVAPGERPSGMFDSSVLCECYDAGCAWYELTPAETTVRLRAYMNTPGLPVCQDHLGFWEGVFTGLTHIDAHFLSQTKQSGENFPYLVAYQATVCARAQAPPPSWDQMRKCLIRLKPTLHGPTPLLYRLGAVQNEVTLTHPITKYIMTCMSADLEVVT
Put plainly: FRET peptide assay to monitor HCV NS3/4A proteolytic activity (BMS strain). Particulars: NS3/4A BMS strain; read-out: IC50 Range. It is filed as biochemical, Hepatitis C virus (genotype 1a). The source says: HCV NS3 protease complexes, derived from the BMS strain, H77 strain or J4L6S strain, were generated, as described below. These purified recombinant proteins were generated for use in a homogeneous assay (see below) to provide an indication of how effective compounds of the present disclosure would be in inhibiting HCV NS3 proteolytic activity.
Serum from an HCV-infected patient was obtained from Dr. T. Wright, San Francisco Hospital. An engineered full-length cDNA (compliment deoxyribonucleic acid) template of the HCV genome (BMS strain) was constructed from DNA fragments obtained by reverse transcription-PCR (RT-PCR) of serum RNA (ribonucleic acid) and using primers selected on the basis of homology between other genotype 1a strains. From the determination of the entire genome sequence, a genotype 1a was assigned to the HCV isolate according to the classification of Simmonds et al. (See P Simmonds, K A Rose, S Graham, S W Chan, F McOmish, B C Dow, E A Follett, P L Yap and H Marsden, J. Clin. Microbiol., 31(6), 1493-1503 (1993)). […] The infectious clones, H77 (1a genotype) and J4L6S (1b genotype) were obtained from R. Purcell (NIH) and the sequences are published in Genbank (AAB67036, see Yanagi, M., Purcell, R. H., Emerson, S. U. and Bukh, J. Proc. Natl. Acad. Sci. U.S.A. 94(16), 8738-8743 (1997); AF054247, see Yanagi, M., St Claire, M., Shapiro, M., Emerson, S. U., Purcell, R. H. and Bukh, J, Virology 244 (1), 161-172. (1998)).
The H77 and J4L6S strains were used for production of recombinant NS3/4A protease complexes. DNA encoding the recombinant HCV NS3/4A protease complex (amino acids 1027 to 1711) for these strains were manipulated as described by P. Gallinari et al. (see Gallinari P, Paolini C, Brennan D, Nardi C, Steinkuhler C, De Francesco R. Biochemistry. 38(17):5620-32, (1999)). Briefly, a three-lysine solubilizing tail was added at the 3′-end of the NS4A coding region. The cysteine in the P1 position of the NS4A-NS4B cleavage site (amino acid 1711) was changed to a glycine to avoid the proteolytic cleavage of the lysine tag. Furthermore, a cysteine to serine mutation was introduced by PCR at amino acid position 1454 to prevent the autolytic cleavage in the NS3 helicase domain. The variant DNA fragment was cloned in the pET21b bacterial expression vector (Novagen) and the NS3/4A complex was expressed in Escherichia coli strain BL21 (DE3) (Invitrogen) following the protocol described by P. Gallinari et al. (see Gallinari P, Brennan D, Nardi C, Brunetti M, Tomei L, Steinkuhler C, De Francesco R., J Virol. 72(8):6758-69 (1998)) with modifications. Briefly, the NS3/4A protease complex expression was induced with 0.5 mM Isopropyl β-D-1-thiogalactopyranoside (IPTG) for 22 hours (h) at 20° C. A typical fermentation (1 Liter (L)) yielded approximately 10 grams (g) of wet cell paste. The cells were resuspended in lysis buffer (10 mL/g) consisting of 25 mM N-(2-Hydroxyethyl)Piperazine-N′-(2-Ethane Sulfonic acid) (HEPES), pH 7.5, 20% glycerol, 500 mM Sodium Chloride (NaCl), 0.5% Triton X-100, 1 microgram/milliliter (“μg/mL”) lysozyme, 5 mM Magnesium Chloride (MgCl2), 1 μg/ml Dnasel, 5 mM β-Mercaptoethanol (βME), Protease inhibitor-Ethylenediamine Tetraacetic acid (EDTA) free (Roche), homogenized and incubated for 20 minutes (min) at 4° C. The homogenate was sonicated and clarified by ultra-centrifugation at 235000 g for 1 h at 4° C. Imidazole was added to the supernatant to a final concentration of 15 mM and the pH adjusted to 8.0. The crude protein extract was loaded on a Nickel-Nitrilotriacetic acid (Ni-NTA) column pre-equilibrated with buffer B (25 mM HEPES, pH 8.0, 20% glycerol, 500 mM NaCl, 0.5% Triton X-100, 15 mM imidazole, 5 mM βME). The sample was loaded at a flow rate of 1 mL/min. The column was washed with 15 column volumes of buffer C (same as buffer B except with 0.2% Triton X-100). The protein was eluted with 5 column volumes of buffer D (same as buffer C except with 200 mM Imidazole). […]

SMILES strings stand for the structures. A value given as a limit tells only on which side of the number the result lay.

The EC50 is the concentration giving half of the maximal effect. Usually melting point stands for the temperature of the solid-liquid transition. By IC50 is commonly meant the concentration needed to halve the response being measured.

In the case of `Cc1cc(C(=O)O[C@@H]2C[C@H]3C(=O)N[C@]4(C(=O)NS(=O)(=O)C5CC5)C[C@H]4/C=C\CCCCC[C@H](NC(=O)OC(C)(C)C)C(=O)N3C2)n(C)n1` [Compound 35], the melting point was 149 to 151 °C. Moreover, the EC50 in series [1] lay in the range of 100 to 1000 nM. In addition, the half-inhibitory concentration (IC50) in series [2] was less than 100 nM.
For `CN(C)S(=O)(=O)NC(=O)[C@@]12C[C@H]1/C=C\CCCCC[C@H](NC(=O)OC(C)(C)C)C(=O)N1C[C@H](OC(=O)c3ccc4c(c3)OCCO4)C[C@H]1C(=O)N2`, the EC50 in series [1] was less than 100 nM. Also, the 50% inhibitory concentration (IC50) in series [2] is less than 100 nM.
In turn, `Cc1cc(C(=O)O[C@@H]2C[C@H]3C(=O)N[C@]4(C(=O)NS(=O)(=O)C5CC5)C[C@H]4/C=C\CCCCC[C@H](NC(=O)OC(C)(C)C)C(=O)N3C2)no1` [Compound 34, 18-(5-methylisoxazole-3-carbonyloxy)-14-tert-butoxycarbonylamino-4-cyclopropylsulfonylaminocarbonyl-2,15-dioxo-3,16-diazatricyclo-[14.3.0.0^4,6]-nonadec-7-ene] came in with a melting point of 157 to 159 °C. The EC50 in series [1] was greater than 1000 nM. For the same molecule, the IC50 in series [2] is less than 100 nM.
`CC(C)(C)OC(=O)N[C@H]1CCCCC/C=C\[C@@H]2C[C@@]2(C(=O)NS(=O)(=O)C2CC2)NC(=O)[C@@H]2C[C@@H](OC(=O)c3cccc(F)c3)CN2C1=O`: the EC50 in series [1] was less than 100 nM. Also, the half-maximal inhibitory concentration (IC50) in series [2] is less than 100 nM.
With `CC(C)(C)OC(=O)N[C@H]1CN(C2CC2)CCC/C=C\[C@@H]2C[C@@]2(C(=O)NS(=O)(=O)C2CC2)NC(=O)[C@@H]2C[C@@H](OC(=O)c3ccc4nccnc4c3)CN2C1=O` [Compound 49], the EC50 in series [1] was less than 100 nM. The IC50 in series [2] is less than 100 nM.
As to `CC(C)(C)OC(=O)N[C@H]1COCCC/C=C\[C@@H]2C[C@@]2(C(=O)NS(=O)(=O)C2CC2)NC(=O)[C@@H]2C[C@@H](OC(=O)N3Cc4cccc(F)c4C3)CN2C1=O` [Compound 46, 18-(2-[4-fluoroisoindoline]carbonyloxy)-14-tert-butoxycarbonylamino-4-cyclopropylsulfonylaminocarbonyl-2,15-dioxo-3,16-diaza-12-oxatricyclo-[14.3.0.0^4,6]-nonadec-7-ene], the EC50 in series [1] is less than 100 nM. Also, in series [2], the IC50 was less than 100 nM.
Consider `CC(C)(C)OC(=O)N[C@H]1CCCCC/C=C\[C@@H]2C[C@@]2(C(=O)NS(=O)(=O)C2CC2)NC(=O)[C@@H]2C[C@@H](OC(=O)c3cc4ccccc4o3)CN2C1=O`, for which the EC50 in series [1] was less than 100 nM. For the same molecule, the concentration for half-maximal inhibition (IC50) in series [2] is less than 100 nM.
For the molecule `CC(C)(C)OC(=O)N[C@H]1CCCCC/C=C\[C@@H]2C[C@@]2(C(=O)O)NC(=O)[C@@H]2C[C@@H](OC(=O)Nc3ccccc3-c3ccccc3)CN2C1=O` [Compound 47], the IC50 in series [2] was greater than 1000 nM.
On to `CC(C)(C)OC(=O)N[C@H]1COCCC/C=C\[C@@H]2C[C@@]2(C(=O)NS(=O)(=O)C2CC2)NC(=O)[C@@H]2C[C@@H](OC(=O)Nc3ccc(-c4ccccc4)cc3)CN2C1=O` [Compound 39, 18-(4-biphenylaminocarbonyloxy)-14-tert-butoxycarbonylamino-4-cyclopropylsulfonylaminocarbonyl-2,15-dioxo-3,16-diaza-12-oxatricyclo-[14.3.0.0^4,6]-nonadec-7-ene], for which the melting point lay within 170 to 173 °C. For the same molecule, the IC50 in series [2] was greater than 1000 nM.
Consider `CC(C)(C)OC(=O)N[C@H]1CN(C2CC2)CCC/C=C\[C@@H]2C[C@@]2(C(=O)NS(=O)(=O)C2CC2)NC(=O)[C@@H]2C[C@@H](OC(=O)N3Cc4cccc(F)c4C3)CN2C1=O` [Compound 50], for which the EC50 in series [1] is less than 100 nM. In addition, the half-inhibitory concentration (IC50) in series [2] is less than 100 nM.
In the case of `Cc1onc(-c2ccccc2)c1C(=O)O[C@@H]1C[C@H]2C(=O)N[C@]3(C(=O)NS(=O)(=O)C4CC4)C[C@H]3/C=C\CCCCC[C@H](NC(=O)OC(C)(C)C)C(=O)N2C1`, the EC50 in series [1] is less than 100 nM. Moreover, the half-inhibitory concentration (IC50) in series [2] is less than 100 nM.
Turning to `CC(C)(C)OC(=O)N[C@H]1CCCCC/C=C\[C@@H]2C[C@@]2(C(=O)NS(=O)(=O)C2CC2)NC(=O)[C@@H]2C[C@@H](OC(=O)Nc3ccccc3-c3ccccc3)CN2C1=O` [Compound 48], the EC50 in series [1] is less than 100 nM. For the same molecule, in series [2], the IC50 is less than 100 nM.
